Experiment [1] relates to H9c2. Description: Inhibition of apoptosis in CoCl2-induced cellular hypoxia injury in rat H9c2 cells assessed as increase in caspase-3 level at 5 to 10 uM incubated for 24 hrs by Western blot analysis. It is filed as functional, cell-based. The settings on record: dose 5-10 µM.
Experiment [2] deals with H9c2. Description: Cardioprotective activity against CoCl2-induced cellular hypoxia injury in rat H9c2 cells assessed as cell viability at 5 uM incubated for 24 hrs by CCK-8 assay (reference value: 51.80 +/- 2.58 %). It is filed as functional. The following applies: read-out: Activity. In general terms: Formazan colour is commonly taken as a measure of viable cells.
In experiment [3] the test system is H9c2. Description: Cardioprotective activity against CoCl2-induced cellular hypoxia injury in rat H9c2 cells assessed as reduction in necrosis at 50 uM incubated for 24 hrs by flow cytometry. It is filed as functional, cell-based. For orientation: A flow cytometer gives signals particle by particle.
Experiment [4] deals with Rattus norvegicus. Description: Cardioprotective activity in myocardial ischemia Sprague-Dawley rat model assessed as decrease in ISO-induced ST segment at 50 mg/kg, IG treated for 7 days consecutively followed by ISO administration daily for 2 days consecutively by ECG analysis. It is filed as functional, organism-based. The settings on record: time 9.0 day.
Experiment [5] concerns Rattus norvegicus. Description: Cardioprotective activity against myocardial ischemia Sprague-Dawley rat model assessed as increase in PGC1-alpha level in myocardial tissue at 50 mg/kg, IG treated for 7 days consecutively followed by ISO administration daily for 2 days consecutively by Western blot analysis. The class given is functional, organism-based. The settings on record: time 9.0 day.

The target in experiment [6] is T1, NAD-dependent protein deacetylase sirtuin-1 (Homo sapiens) (UniProt Q96EB6).
T1 sequence (whole entry): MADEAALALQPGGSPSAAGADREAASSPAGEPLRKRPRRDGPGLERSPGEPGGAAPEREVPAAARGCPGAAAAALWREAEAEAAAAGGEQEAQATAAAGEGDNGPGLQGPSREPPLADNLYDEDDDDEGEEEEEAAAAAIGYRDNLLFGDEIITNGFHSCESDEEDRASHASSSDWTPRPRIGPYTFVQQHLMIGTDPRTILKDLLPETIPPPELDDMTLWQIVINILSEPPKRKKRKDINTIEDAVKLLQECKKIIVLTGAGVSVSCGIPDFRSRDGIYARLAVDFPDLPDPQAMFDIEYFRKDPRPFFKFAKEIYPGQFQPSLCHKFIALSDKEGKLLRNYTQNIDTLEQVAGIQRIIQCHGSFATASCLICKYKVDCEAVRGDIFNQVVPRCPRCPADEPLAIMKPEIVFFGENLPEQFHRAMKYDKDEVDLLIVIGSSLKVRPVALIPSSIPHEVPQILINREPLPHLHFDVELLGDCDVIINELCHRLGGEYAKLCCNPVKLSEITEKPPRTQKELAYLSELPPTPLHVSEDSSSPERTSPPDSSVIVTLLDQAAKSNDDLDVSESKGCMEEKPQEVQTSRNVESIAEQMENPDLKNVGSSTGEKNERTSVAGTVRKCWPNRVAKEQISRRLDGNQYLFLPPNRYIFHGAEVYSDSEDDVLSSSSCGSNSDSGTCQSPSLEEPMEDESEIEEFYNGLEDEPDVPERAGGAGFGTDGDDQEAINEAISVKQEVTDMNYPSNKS
Description: Activation of SIRT1 (unknown origin) using RHKK-ac-AMC as substrate incubated for 2 hrs by FDL assay relative to control. The settings on record: filed as activator.

The subject of experiment [7] is H9c2. Description: Cardioprotective activity against CoCl2-induced cellular hypoxia injury in rat H9c2 cells assessed as cell viability at 0.625 uM incubated for 24 hrs by CCK-8 assay (reference value: 51.80 +/- 2.58 %). The class given is functional. The settings on record: read-out: Activity.
The subject of experiment [8] is H9c2. Description: Cardioprotective activity against CoCl2-induced cellular hypoxia injury in rat H9c2 cells assessed as cell viability at 10 uM incubated for 24 hrs by CCK-8 assay (reference value: 51.80 +/- 2.58 %). The settings on record: read-out: Activity. It is filed as functional.
Experiment [9] concerns H9c2. Description: Cardioprotective activity against CoCl2-induced cellular hypoxia injury in rat H9c2 cells assessed as mitochondrial membrane potential at 50 uM incubated for 24 hrs by JC-1 staining based analysis (reference value: 48.08 %). It is filed as functional.
The subject of experiment [10] is H9c2. Description: Inhibition of apoptosis in CoCl2-induced cellular hypoxia injury in rat H9c2 cells assessed as increase in Bcl-2 level at 5 to 10 uM incubated for 24 hrs by Western blot analysis. The settings on record: dose 5-10 µM. It is filed as functional, cell-based.
The test system of experiment [11] is H9c2. Description: Inhibition of apoptosis in CoCl2-induced cellular hypoxia injury in rat H9c2 cells assessed as decrease in Bax level at 5 to 10 uM incubated for 24 hrs by Western blot analysis. It is filed as functional, cell-based. The following applies: dose 5-10 µM.
Experiment [12] addresses T2, NAD-dependent protein deacetylase sirtuin-1 (Rattus norvegicus) (UniProt A0A0G2JZ79).
T2 sequence (whole entry): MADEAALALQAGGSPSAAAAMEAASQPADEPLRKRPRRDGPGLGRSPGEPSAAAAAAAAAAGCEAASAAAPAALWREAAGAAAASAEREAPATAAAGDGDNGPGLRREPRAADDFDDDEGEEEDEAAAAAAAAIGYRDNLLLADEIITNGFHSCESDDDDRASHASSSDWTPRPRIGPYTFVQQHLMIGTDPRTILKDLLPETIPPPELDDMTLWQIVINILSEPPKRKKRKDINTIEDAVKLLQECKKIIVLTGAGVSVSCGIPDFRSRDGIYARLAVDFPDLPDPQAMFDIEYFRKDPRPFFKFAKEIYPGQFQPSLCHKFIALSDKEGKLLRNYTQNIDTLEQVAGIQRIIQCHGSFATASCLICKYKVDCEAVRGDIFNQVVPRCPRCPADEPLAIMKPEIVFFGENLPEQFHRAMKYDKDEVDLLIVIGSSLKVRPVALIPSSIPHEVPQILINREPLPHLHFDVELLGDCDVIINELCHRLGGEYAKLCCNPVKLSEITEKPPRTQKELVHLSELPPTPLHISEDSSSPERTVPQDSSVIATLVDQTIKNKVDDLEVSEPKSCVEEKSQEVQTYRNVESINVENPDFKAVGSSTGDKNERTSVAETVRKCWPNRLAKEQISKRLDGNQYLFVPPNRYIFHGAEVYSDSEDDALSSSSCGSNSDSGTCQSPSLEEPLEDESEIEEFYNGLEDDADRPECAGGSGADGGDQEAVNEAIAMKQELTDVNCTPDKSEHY
Description: Activation of SIRT1 in CoCl2-induced cellular hypoxia injury in rat H9c2 cells at 50 uM incubated for 24 hrs by Western blot analysis. The following applies: filed as activator. The class given is cell-based.

Experiment [13] deals with Rattus norvegicus. Description: In vivo activation of SIRT1 in myocardial tissue of myocardial ischemia Sprague-Dawley rat model at 50 mg/kg, IG treated for 7 days consecutively followed by ISO administration daily for 2 days consecutively by Western blot analysis. It is filed as functional, organism-based. The following applies: time 9.0 day. On the technique in general: Immunoblotting shows a protein as a band on a membrane.

For experiment [14], the system named is H9c2. Description: Cardioprotective activity against CoCl2-induced cellular hypoxia injury in rat H9c2 cells assessed as cell viability at 2.5 uM incubated for 24 hrs by CCK-8 assay (reference value: 51.80 +/- 2.58 %). The settings on record: read-out: Activity. The class given is functional.
The test system of experiment [15] is H9c2. Description: Cardioprotective activity against CoCl2-induced cellular hypoxia injury in rat H9c2 cells assessed as cell viability at 1.25 uM incubated for 24 hrs by CCK-8 assay (reference value: 51.80 +/- 2.58 %). It is filed as functional. The settings on record: read-out: Activity.
Experiment [16] deals with H9c2. Description: Cardioprotective activity against CoCl2-induced cellular hypoxia injury in rat H9c2 cells assessed as increase in PGC1-alpha level at 50 uM incubated for 24 hrs by Western blot analysis. The class given is functional, cell-based.
Experiment [17] has as its system H9c2. Description: Cardioprotective activity against CoCl2-induced cellular hypoxia injury in rat H9c2 cells assessed as reduction in apoptosis at 50 uM incubated for 24 hrs by flow cytometry. It is filed as functional, cell-based.

The source made the active and inactive calls. No cut-off for these calls is given here.

For `Oc1ccc(/C=C/c2cc(O)cc(O)c2)cc1` [RESVERATROL], the inhibition result in experiment [1], in experiment [10] and in [11] was “Active” in each case. The viability at 5 µM in experiment [2] was determined as 68.5%. The result in experiment [3], in experiment [4], in experiment [5], in experiment [12], in [13] and in experiment [16] was Active. Besides, the outcome in experiment [17] was Active. Besides, the Activity in [6] turned out to be 158%; in [9], 73.27%. Moreover, the viability at 0.625 µM in experiment [7] amounted to 58.3%. Also, the viability at 10 µM in [8] is 76.1%. Further, the viability at 2.5 µM in experiment [14] amounted to 64.1%. For the same compound, in experiment [15], the viability at 1.25 µM was found to be 58.8%.

The record behind these values is ChEMBL document CHEMBL6120941, “Discovery of SIRT1-Activating Hydrogen Sulfide Donating Derivatives for Efficient Resistant of Myocardial Ischemic Injury” (J Med Chem, 2024).
